Source: patent US20260001868A1, “HETEROCYCLIC COMPOUND CAPABLE OF INHIBITING PRMT5-MTA AND USE THEREOF” (Xizang Haisco Pharmaceutical Co., Ltd., priority 2022, published 2026)
Read-outs that look alike come from different tables or passages of the source.

Experiments:
PRMT5/MEP50 = PRMT5/MEP50 (Homo sapiens (Human), UniProt O14744); assay: PRMT5 enzyme activity test (Alpha detection); type: biochemical; conditions: PRMT5/MEP50 1 nM, absence of MTA
Description: (§1) 1× test buffer (10 mM Tris, 1 mM DTT, 0.01% BSA, 0.01% Tween-20, adjusted to pH 8.0) was prepared. The test compound was dissolved in DMSO to prepare a 10 mM mother liquor, and the mother liquor was diluted to a 100-fold final concentration. 100 nL of the compound was added to each well of the administration group, and 100 nL of DMSO solution was added to blank wells and negative control wells. Then, 5 μL of a PRMT5/MEP50 (BPS, Cat #31921) enzyme solution (final concentration: 1 nM) was added to the wells of the administration group and negative control wells, and 5 μL of 1× test buffer was added to the blank wells. Incubation was performed at room temperature for 15 minutes. […] 1× Epigenetics buffer (PerkinElmer, Cat #AL008F) was prepared and used for diluting acceptor microbeads and donor microbeads. 15 μL of acceptor microbeads (final concentration: 10 μg/mL; PerkinElmer, Cat #AL150C) and donor microbeads (final concentration: 10 μg/mL; PerkinElmer, Cat #AS106M) were added and incubated at room temperature for 1 hour in the dark. Then, detection was performed using the Alpha module of the reader Enspire microplate. Based on the obtained data, the inhibition rate was calculated in Excel according to: inhibition rate (%)=(maximum value negative control−detection signal value)/(maximum value negative control−minimum value blank control)×100, and IC50 values were fitted by using XL-Fit.

PRMT5⋅MTA = PRMT5⋅MTA (Homo sapiens (Human), UniProt O14744); assay: PRMT5 MTA enzyme activity test (Alpha detection); type: biochemical; conditions: PRMT5/MEP50 1 nM with MTA 1 μM
PRMT5⋅MTA, sequence (O14744 whole entry): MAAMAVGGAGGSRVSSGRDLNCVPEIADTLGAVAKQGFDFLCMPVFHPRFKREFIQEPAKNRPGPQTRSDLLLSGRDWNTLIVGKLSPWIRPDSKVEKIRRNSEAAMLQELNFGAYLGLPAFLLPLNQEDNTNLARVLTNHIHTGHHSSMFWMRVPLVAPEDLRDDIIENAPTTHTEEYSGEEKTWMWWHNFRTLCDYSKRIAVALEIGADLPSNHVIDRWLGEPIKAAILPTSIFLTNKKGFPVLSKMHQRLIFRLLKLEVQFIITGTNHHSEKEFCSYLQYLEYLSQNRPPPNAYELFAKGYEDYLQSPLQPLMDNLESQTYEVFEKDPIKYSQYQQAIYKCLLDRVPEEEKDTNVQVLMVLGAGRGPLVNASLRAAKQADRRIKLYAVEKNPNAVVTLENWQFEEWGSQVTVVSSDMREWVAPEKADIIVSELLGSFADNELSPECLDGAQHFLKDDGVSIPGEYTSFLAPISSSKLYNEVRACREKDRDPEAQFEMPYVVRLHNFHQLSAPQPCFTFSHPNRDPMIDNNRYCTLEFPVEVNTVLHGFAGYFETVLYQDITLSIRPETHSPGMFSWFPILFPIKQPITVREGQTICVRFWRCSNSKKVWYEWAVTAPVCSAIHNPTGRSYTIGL
PRMT5⋅MTA, sequence (Q9BQA1 whole entry partner): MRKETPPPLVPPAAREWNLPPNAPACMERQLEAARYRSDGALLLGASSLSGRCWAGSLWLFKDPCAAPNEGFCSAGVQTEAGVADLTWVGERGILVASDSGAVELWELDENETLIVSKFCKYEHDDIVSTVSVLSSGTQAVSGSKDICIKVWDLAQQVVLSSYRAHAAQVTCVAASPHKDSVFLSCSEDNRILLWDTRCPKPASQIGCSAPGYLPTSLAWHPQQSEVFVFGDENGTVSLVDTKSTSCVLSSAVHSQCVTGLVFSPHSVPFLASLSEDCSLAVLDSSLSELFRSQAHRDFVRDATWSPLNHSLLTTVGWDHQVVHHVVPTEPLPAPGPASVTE
Description: as §1, with “of a solution of PRMT5/MEP50 (BPS,” for “of a PRMT5/MEP50 (BPS,”, “Cat #31921) (final concentration:” for “Cat #31921) enzyme solution (final concentration:”, “1 nM) and MTA (final concentration: 1 μM) was added” for “1 nM) was added”, “Enspire microplate.” for “Enspire microplate. Based on the obtained data, the inhibition rate was calculated in Excel according to: inhibition rate (%)=(maximum value negative control−detection signal value)/(maximum value negative control−minimum value blank control)×100, and IC50 values were fitted by using XL-Fit.”
Based on the obtained data, the inhibition rate was calculated in Excel according to: inhibition rate (%)=(maximum value negative control−detection signal value)/(maximum value negative control−minimum value blank control)×100, and IC50 values were fitted by using XL-Fit.

HCT-116 cells = assay: HCT-116 cell proliferation inhibition experiment; type: cell-based
Description: (§2) The chemiluminescence readings were detected by a microplate reader.

[1] = design: species or system beagle dogs; conditions: dog, in vivo
Description: 10.1 Experimental animals: male beagle dogs, about 8-11 kg, 6 beagle dogs/compound, purchased from Beijing Marshall Biotechnology Co., Ltd.
10.2 Experimental method: On the day of the experiment, (6× number of test compounds (n)) beagle dogs were randomly divided into groups according to their body weights. The animals were fasted but with water available for 12 to 14 h one day before the administration and were fed 4 h after the administration. Administration was carried out according to Table 8.
Before and after the administration, 1 mL of blood was taken from the jugular veins or limb veins, and placed in an EDTAK2 centrifuge tube. Centrifugation was performed at 5000 rpm at 4° C. for 10 min, and the plasma was collected. The blood collection time points for the intravenous administration group and intragastric administration group were 0 min, 5 min, 15 min, 30 min, 1 h, 2 h, 4 h, 6 h, 8 h, 10 h, 12 h and 24 h. Before analysis and detection, all samples were stored at −80° C., and a quantitative analysis of samples was performed using LC-MS/MS.

[2] = tested on: SDMA production in HCT-116 cells; assay: SDMA detection in HCT-116 cells; type: cell-based; conditions: 3 days incubation
Description: HCT-116 cells were cultured in an RPMI 1640 culture medium (ATCC, Cat #30-2001; supplemented with 10% FBS and 1% double antibody) until the confluence reached about 85%, and then the cells were plated. The culture medium was discarded, and the cells were rinse with 1×PBS and digested by trypsin (Gibco, Cat #15400-054). When the cells became round and began to fall off, the digestion was terminated by adding the culture medium. The cells were pipetted, transferred to a sterile centrifuge tube and centrifuged at 1000 rpm for 3 minutes, and after the centrifugation, the supernatant was discarded. The cells were resuspended by adding the culture medium to the centrifuge tube and then counted. According to the counting results, the cell suspension was adjusted to an appropriate concentration and poured into a loading slot. 100 μL of the cell suspension was added to each well of the 96-well plate. The compound was dissolved in DMSO to 10 mM and stored for later use. […] 100 μL of the Immobilon Forte Western HRP substrate (Millipore, Cat #WBLUF0500) was added to each well and incubated with shaking for 15 minutes, followed by chemiluminescence detection using the BMG microplate reader. After data normalization (SDMA reading/SMD3 reading), Graphpad Prism 8.3.0 software was used to plot the data, and the IC50 value was calculated.

MIAPACA-2 cells = assay: MIAPACA-2 cell proliferation inhibition experiment; type: cell-based
Description: as §2

[3] = tested on: SDMA production in HCT-116 MTAP−/− cells; conditions: read-out: HCT-116 MTAP−/− SDMA (IC50); 3 days incubation
Description: HCT-116 MTAP−/− cells were cultured in an RPMI 1640 culture medium (ATCC, #30-2001; supplemented with 10% FBS and 1% double antibody) until the confluence reached about 85%, and then the cells were plated. The culture medium was discarded, and the cells were rinse with 1×PBS and digested by trypsin (Gibco, Cat #15400-054). When the cells became round and began to fall off, the digestion was terminated by adding the culture medium. The cells were pipetted, transferred to a sterile centrifuge tube and centrifuged at 1000 rpm for 3 minutes, and after the centrifugation, the supernatant was discarded. The cells were resuspended by adding the culture medium to the centrifuge tube and then counted. According to the counting results, the cell suspension was adjusted to an appropriate concentration and poured into a loading slot. 100 μL of the cell suspension was added to each well of the 96-well plate. The compound was dissolved in DMSO to 10 mM and stored for later use. […] 100 μL of the Immobilon Forte Western HRP substrate (Millipore, Cat #WBLUF0500) was added to each well and incubated with shaking for 15 minutes, followed by chemiluminescence detection using the BMG microplate reader. After data normalization (SDMA reading/SMD3 reading), Graphpad Prism 8.3.0 software was used to plot the data, and the IC50 value was calculated.

[4] = day 5, read-out: MIAPACA-2 (day 5 GI50)
[5] = day 10, read-out: MIAPACA-2 (day 10 GI50)
[6] = Homo sapiens, MIA PaCa-2, 120 h, read-out: MIAPACA-2 (day 5 GI50)

PRMT5/MEP50, sequence (O14744 whole entry): as the sequence (O14744 whole entry) above
PRMT5/MEP50, sequence (Q9BQA1 whole entry partner): as the sequence (Q9BQA1 whole entry partner) above

Compound	GI50 (MIAPACA-2 cells; [4])	GI50 (MIAPACA-2 cells; [6])	IC50 (PRMT5/MEP50)	IC50 (PRMT5⋅MTA; read-out: PRMT5•MTA)	GI50 (MIAPACA-2 cells; [5])	also measured
C=Cc1cc(-c2cnn(C)c2-c2c(F)c(Cl)cc(OC3(C)CC3)c2C#N)cc2c(CN)n[nH]c(=O)c12 [Compound 30, (2R)-2-(4-(4-(aminomethyl)-1-oxo-8-vinyl-1,2-dihydrophthalazin-6-yl)-1-methyl-1H-pyrazol-5-yl)-4-chloro-3-fluoro-6-(1-methylcyclopropoxy)benzonitrile]	< 50 nM		1 to 10 nM	< 1 nM	< 50 nM	IC50 (PRMT5⋅MTA; read-out: IC50 value for PRMT5⋅MTA): 0.8 nM; GI50 (HCT-116 cells; day 5, read-out: HCT-116 (day 5 GI50)): > 500 nM; GI50 (HCT-116 cells; day 10, read-out: HCT-116 (day 10 GI50)): > 500 nM; CL ([1]; iv, 5 mg/kg): 0.313 mL/min/kg; AUC0-t ([1]; po, 10 mg/kg): 178.458 µg·h/mL; T1/2 ([1]; po, 10 mg/kg): 16.1 h; IC50 [2]: 499 nM; IC50 [3]: 3.39 nM; GI50 (HCT-116 MTAP−/− cells; read-out: HCT-116 MTAP−/− (day 5 GI50), day 5): 38.2 nM; GI50 (HCT-116 MTAP−/− cells; read-out: HCT-116 MTAP−/− (day 10 GI50), day 10): 19.9 nM
Cn1ncc(-c2ccc3c(=O)[nH]c(CN)nc3c2)c1-c1c(F)c(Cl)cc(OC2CC2)c1C#N [Compound 5, 2-(4-(2-(aminomethyl)-4-oxo-3,4-dihydroquinazolin-7-yl)-1-methyl-1H-pyrazol-5-yl)-4-chloro-6-cyclopropoxy-3-fluorobenzonitrile]		< 50 nM				GI50 (MIAPACA-2 cells; Homo sapiens, MIA PaCa-2, 240 h, read-out: MIAPACA-2 (day 10 GI50)): < 50 nM
Cn1ncc(-c2ccc3c(=O)[nH]cc(CN)c3c2)c1-c1c(F)c(Cl)cc(OC2CC2)c1C#N [Compound 1, 2-(4-(4-(aminomethyl)-1-oxo-1,2-dihydroisoquinolin-6-yl)-1-methyl-1H-pyrazol-5-yl)-4-chloro-6-cyclopropoxy-3-fluorobenzonitrile]			10 to 50 nM	1 to 10 nM		

Further lines, with some results ahead:

GI50 (MIAPACA-2 cells; [4])	GI50 (MIAPACA-2 cells; [6])	Compound	IC50 (PRMT5/MEP50)	IC50 (PRMT5⋅MTA; read-out: PRMT5•MTA)	GI50 (MIAPACA-2 cells; [5])	also measured
	< 50 nM	Cn1ncc(-c2cc(N3CCC3)c3c(=O)[nH]nc(CN)c3c2)c1-c1c(F)c(Cl)cc(OC2CC2)c1C#N [Compound 22, 2-(4-(4-(aminomethyl)-8-(azetidin-1-yl)-1-oxo-1,2-dihydrophthalazin-6-yl)-1-methyl-1H-pyrazol-5-yl)-4-chloro-6-cyclopropoxy-3-fluorobenzonitrile]				
< 50 nM		Cn1ncc(-c2ccc3c(=O)[nH]c(CN)nc3c2)c1-c1c(F)c(Cl)cc(OC2CC2)c1C#N [Compound 11, (2S)-2-(4-(2-(aminomethyl)-4-oxo-3,4-dihydroquinazolin-7-yl)-1-methyl-1H-pyrazol-5-yl)-4-chloro-6-cyclopropoxy-3-fluorobenzonitrile]			< 50 nM	
< 50 nM		Cn1ncc(-c2ccc3c(=O)[nH]c(CN)nc3c2)c1-c1c(F)c(Cl)cc(OC2(C)CC2)c1C#N [Compound 14, (2S)-2-(4-(2-(aminomethyl)-4-oxo-3,4-dihydroquinazolin-7-yl)-1-methyl-1H-pyrazol-5-yl)-4-chloro-3-fluoro-6-(1-methylcyclopropoxy)benzonitrile]				
